Test results reported in patent US7709235B2, “5-Substituted hydantoin racemase, DNA encoding the same, recombinant DNA, transformed cell, and process for production of optically active N-carbamylamino acid or optically active amino acid” (priority 2005, dated 2010).
Changes are numbered by the printed parent chain.

T1: hydantoin racemase of Pseudomonas sp. (Pseudomonas sp., UniProt Q00924)
T1 sequence (Q00924 1-249): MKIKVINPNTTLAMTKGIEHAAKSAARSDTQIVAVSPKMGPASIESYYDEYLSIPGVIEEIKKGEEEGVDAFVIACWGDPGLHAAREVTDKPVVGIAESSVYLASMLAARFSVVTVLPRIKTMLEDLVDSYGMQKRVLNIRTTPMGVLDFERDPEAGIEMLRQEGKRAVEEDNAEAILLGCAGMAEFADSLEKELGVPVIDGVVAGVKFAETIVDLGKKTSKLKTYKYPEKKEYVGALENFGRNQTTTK

B1: purified hydantoin racemase: hydantoin racemase from Bacillus sp. KNK519HR, polypeptide with the amino acid sequence of SEQ ID NO: 1 (protein, listed as Bacillus sp.)
chain: T1 sequence (Q00924 1-249) with L138V, T212A, R243L

Assays:
[1] = test system: hydantoin racemase produced by Bacillus sp. KNK519HR; test: Substrate specificity with crude enzyme solution coupled with D-hydantoinase and D-N-carbamylamino acid amidohydrolase, D-alanine quantified by enzyme method; assay type: biochemical; conditions: L-5-isobutylhydantoin = 100, 50 mM substrate
Method: Substrate specificity of hydantoin racemase produced by Bacillus sp. KNK519HR was examined using a crude enzyme solution of Bacillus sp. KNK519HR that was produced according to the procedure described in Example 1. First, 0.1 ml of crude enzyme solution was added to each 0.9 ml of 50 mM Tris-HCl buffers (pH 7.5) containing 4 mM L-5-benzylhydantoin, 50 mM L-5-(2-methylthioethyl)hydantoin, and 8 mM L-5-isobutylhydantoin, respectively. The mixtures were allowed to react at 30° C., and the reaction was terminated by adding 0.1 ml of 1N HCl. The supernatant of a centrifuged reaction mixture was diluted two times with ion exchange water, and the D-5-substituted hydantoin compound generated in the reaction mixture was quantified by HPLC. HPLC analysis was performed under the following conditions. […] After neutralization with 1N NaOH, the reaction mixture was centrifuged and the D-alanine generated in the supernatant was quantified by an enzyme method using D-amino acid oxydase and peroxydase.
Quantification of D-alanine by the enzyme method was performed as follows. […] The mixture was allowed to react for 90 minutes, and an absorbance at 555 nm was measured to quantity the D-alanine generated in the reaction mixture. […]

[2] = test system: hydantoin racemase enzyme solution of transformant; test: Substrate specificity of hydantoin racemase of transformant; assay type: biochemical, Escherichia coli HB101 (pBHR001); conditions: activity for L-5-(2-methylthioethyl)hydantoin taken at 100, method of Example 2
Method: (§1) Substrate specificity of purified hydantoin racemase was examined. First, 0.1 ml of purified hydantoin racemase obtained in Example 1 was added to each 0.9 ml of 50 mM Tris-HCl buffers (pH 7.5) containing 50 mM L-5-(2-methylthioethyl)hydantoin, 50 mM D-5-(2-methylthioethyl)hydantoin, 13 mM D-5-(1-mercapto-1-methyl)ethylhydantoin, 8 mM L-5-isobutylhydantoin, 50 mM L-5-(1-methylpropyl)hydantoin, and 4 mM L-5-benzylhydantoin, respectively. The mixtures were allowed to react at 30° C., and the reaction was terminated by adding 0.1 ml of 1N HCl. Except for the reaction using the substrate D-5-(1-mercapto-1-methyl)ethylhydantoin, the reaction was analyzed by diluting the supernatant of a centrifuged reaction mixture two times with ion exchange water, and by quantifying the D-5-substituted hydantoin compound generated in the reaction mixture, using HPLC. HPLC analysis was performed under the conditions given above. For the reaction using the substrate D-5-(1-mercapto-1-methyl)ethylhydantoin, the reaction mixture was analyzed by quantifying a sample that had been obtained by extracting the reaction mixture with 1 ml of ethyl acetate. Analysis was performed by performing HPLC under the following conditions. Column: CHIRALPAK AD-H (Daicel), eluent: hexane/isopropanol=9/1, flow rate: 1 ml/min., column temperature: 25° C., detection: 210 nm.
Using the hydantoin racemase enzyme solution of transformant obtained in Example 7, substrate specificity was examined according to the method of Example 2. The result is shown in Table 4 as relative activities, taking the activity for L-5-(2-methylthioethyl)hydantoin at 100.

[3] = test system: purified hydantoin racemase; test: Substrate specificity of purified hydantoin racemase; assay type: biochemical, Bacillus sp. KNK519HR; conditions: purified enzyme; activity for L-5-(2-methylthioethyl)hydantoin taken at 100; 30° C., Tris-HCl pH 7.5; substrate 4-50 mM
Method: as §1

[4] = test system: hydantoin racemase produced by Bacillus sp. KNK519HR; test: Substrate specificity with crude enzyme solution of Bacillus sp. KNK519HR (HPLC); assay type: biochemical; conditions: activity for L-5-isobutylhydantoin taken at 100, 30° C., pH 7.5, HPLC of D-hydantoin
Method: Substrate specificity of hydantoin racemase produced by Bacillus sp. KNK519HR was examined using a crude enzyme solution of Bacillus sp. KNK519HR that was produced according to the procedure described in Example 1. First, 0.1 ml of crude enzyme solution was added to each 0.9 ml of 50 mM Tris-HCl buffers (pH 7.5) containing 4 mM L-5-benzylhydantoin, 50 mM L-5-(2-methylthioethyl)hydantoin, and 8 mM L-5-isobutylhydantoin, respectively. The mixtures were allowed to react at 30° C., and the reaction was terminated by adding 0.1 ml of 1N HCl. The supernatant of a centrifuged reaction mixture was diluted two times with ion exchange water, and the D-5-substituted hydantoin compound generated in the reaction mixture was quantified by HPLC. HPLC analysis was performed under the following conditions. Column: Chirobiotic T (4.6 mm×250 mm, ASTEC Inc., eluent: 0.01% (v/v) Triethylamine acetate (pH 6.8)/methanol=9/1, flow rate: 0.7 ml/min., column temperature: 35° C., detection: 210 nm. Further, 0.1 ml of crude enzyme solution of Bacillus sp. KNK519HR was added to 0.9 ml of 50 mM Tris-HCl buffer (pH 7.5) containing 50 mM 5-methylhydantoin, together with recombinant Escherichia coli having D-form selective hydantoinase activity for 1 ml of culture solution (described later), and recombinant Escherichia coli having D-form selective N-carbamylamino acid amidohydrolase activity for 1 ml of culture solution. The mixture was allowed to react at 30° C., and the reaction was terminated by adding 0.1 ml of 1N HCl. After neutralization with 1N NaOH, the reaction mixture was centrifuged and the D-alanine generated in the supernatant was quantified by an enzyme method using D-amino acid oxydase and peroxydase.

[5] = test system: purified hydantoin racemase; test: Measurement of Km value (Lineweaver-Burk plot); assay type: biochemical, Bacillus sp. KNK519HR; conditions: FIG. 2
Method: A Km value for L-5-(2-methylthioethyl)hydantoin was determined from the Lineweaver-Burk plot.

[6] = biological target: T1, hydantoin racemase of Pseudomonas sp.; conditions: Pseudomonas sp. enzyme; proportion of D-form at reaction time 10 minutes; L-5-(2-methylthioethyl)hydantoin = 100; cited from earlier work
[7] = Hydantoin racemase activity of purified enzyme, HPLC quantification of D-5-(2-methylthioethyl)hydantoin generated; assay type: biochemical, Bacillus sp. KNK519HR; conditions: 30° C., 30 minutes, 50 mM Tris-HCl buffer (pH 7.5), 50 mM L-5-(2-methylthioethyl)hydantoin; 1 unit = 1 μmol D-form per minute
Method: In an embodiment of the present invention, the hydantoin racemase activity of the polypeptide can be measured by, for example, quantification of D-5-(2-methylthioethyl)hydantoin generated at 30° C. in 30 minutes in 50 mM Tris (tris(hydroxymethyl)aminomethane)-HCl buffer (pH 7.5) containing 50 mM L-5-(2-methylthioethyl)hydantoin, using high-performance liquid chromatography (HPLC) or the like.
The activity of the purified hydantoin racemase was determined by HPLC, by quantifying the amount of increase of D-5-(2-methylthioethyl)hydantoin generated at 30° C. in 30 minutes in a 50 mM Tris-HCl buffer (pH 7.5) containing 50 mM L-5-(2-methylthioethyl)hydantoin. HPLC analysis was performed under the following conditions. Column: Chirobiotic T (4.6 mm×250 mm, ASTEC Inc.), eluent: 0.01% (v/v) triethylamine acetate (pH 6.8)/methanol=9/1, flow rate: 0.7 ml/min., column temperature: 35° C., detection: 210 nm. Here, 1 unit was defined as the amount of enzyme that generated 1 μmol D-5-(2-methylthioethyl)hydantoin in one minute. Quantification of protein was performed according to the Lowry method, using BSA as a standard.

[8] = Temperature stability and pH stability of the enzyme (remaining activity); assay type: physicochemical, Bacillus sp. KNK519HR; conditions: FIG. 5
Method: Temperature stability of enzyme was examined as the remaining activity after 30 minutes of processing at different temperatures.
pH stability was examined. FIG. 6 represents remaining activity of enzyme after processing the enzyme at 30° C. for 16 hours at different pH, taking the activity of untreated enzyme at 100%. The enzyme was relatively stable in a pH range of 4.5 to 8.0.

[9] = Effective temperature range, optimum temperature, effective pH range and optimum pH of the enzyme; assay type: biochemical, Bacillus sp. KNK519HR; conditions: FIG. 3, activity at 40° C. taken at 100%
Method: Assessment was made as to effective temperature range and optimum temperature. FIG. 3 represents relative activities at different temperatures, taking the activity at 40° C. at 100%. The optimum temperature of the enzyme was 40° C., and the enzyme desirably exerted its action at all temperatures in the evaluated temperature range of 25° C. to 65° C.
Assessment was made as to effective pH range and optimum pH. […] The enzyme exerted its action in a pH range of 6 to 10. The optimum pH range was 8 to 9.

[10] = Substrate inhibition of hydantoin racemase (crude enzyme solution); assay type: biochemical, Bacillus sp. KNK519HR; conditions: L-5-(2-methylthioethyl)hydantoin as substrate between 50 mM and 80 mM; initial rate, 30° C., FIG. 7
Method: Substrate inhibition of the hydantoin racemase produced by Bacillus sp. KNK519HR was examined using the crude enzyme solution prepared in Example 1. In a reaction mixture of 0.1-ml crude enzyme solution and each 0.9-ml of 50 mM Tris-HCl buffers (pH 7.5) respectively containing 5, 10, 50, and 80 mM L-5-(2-methylthioethyl)hydantoin, respectively, the reaction was performed at 30° C. for 10, 20, 30, and 40 minutes. After the reaction, hydantoin racemase activity was abolished by adding 0.1 ml of 1N HCl. The supernatant of the centrifuged reaction mixture was diluted two times with ion exchange water, and the D-5-(2-methylthioethyl)hydantoin generated in the reaction mixture was quantified by HPLC. HPLC analysis was performed under the same conditions used in Example 3. An initial reaction rate was determined at each initial substrate concentration. FIG. 7 represents a relationship between relative activity and initial substrate concentration.

Molecule | Relative Activity [2] | Relative Activity [3] | Relative Activity [4] | further results
C[C@@H]1NC(=O)NC1=O [L-5-methylhydantoin] |  |  |  | Relative Activity [1]: 20
O=C1NC(=O)[C@H](Cc2ccccc2)N1 [L-5-benzylhydantoin] | 35 | 52 | 35 | 
CSCC[C@H]1NC(=O)NC1=O [D-5-(2-methylthioethyl)hydantoin] | 52 | 49 |  | 
CC(C)(S)C1NC(=O)NC1=O [D-5-(1-mercapto-1-methyl)ethylhydantoin] | 9 | 25 |  | 
CSCC[C@@H]1NC(=O)NC1=O [L-5-(2-methylthioethyl)hydantoin] | 100 | 100 | 61 | Km [5]: 304 µM; Relative Activity [6]: 100
CC(C)C[C@@H]1NC(=O)NC1=O [L-5-isobutylhydantoin] | 174 | 173 | 100 | 
CCC(C)[C@@H]1NC(=O)NC1=O (stereo partly drawn) [L-5-(1-methylpropyl)hydantoin] | 2 | 2 |  | Relative Activity [6]: 132
B1 |  |  |  | specific activity [7]: 24.2 unit/mg protein; remaining activity (temperature stability) ([8]; after 30 minutes of processing at 30° C.): 80%; remaining activity (temperature stability) ([8]; after 30 minutes of processing at 70° C.): almost all activity was lost; optimum temperature [9]: 40 °C; substrate inhibition [10]: had substrate inhibition
